# According to article PMC6257796, “Effects of Eupatilin and Jaceosidin on Cytochrome P450 Enzyme Activities in Human Liver Microsomes” (Molecules, 2010):
# Legend:
# Format in all cases: in vitro ADME
# CYP3A = test: Cocktail probe assay in pooled human liver microsomes: midazolam 1'-hydroxylation (IC50); conditions: pooled human liver microsomes, 2.5 μM midazolam
# Procedure: (§1) The inhibitory potencies (IC50 values) of eupatilin and jaceosidin were determined with CYP assays in the presence and absence of eupatilin and jaceosidin (final concentrations of 0.1−100 μM with acetonitrile concentration of less than 0.5% v/v) using pooled human liver microsomes. Phenacetin O-deethylase, coumarin 7-hydroxylase, amodiaquine N-deethylase, diclofenac hydroxylase, [S]-mephenytoin 4'-hydroxylase, bufuralol 1'-hydroxylase, and midazolam 1'-hydroxylase activities were determined as probe activities for CYP1A2, CYP2A6, CYP2C8, CYP2C9, CYP2C19, CYP2D6, and CYP3A, respectively, using cocktail incubation and tandem mass spectrometry. The incubation mixtures were prepared in a total volume of 200 μL as follows: pooled human liver microsomes (0.25 mg/mL), 1.3 mM NADPH, 3.3 mM MgCl2, 50 mM potassium phosphate buffer (pH 7.4), and a cocktail of probe substrates and various concentrations of eupatilin or jaceosidin (0.1−100 μM). […] After a 3 min preincubation at 37 °C, the reactions were initiated by adding NADPH and incubated for 20 min at 37 °C with shaking in a water bath. After incubation, the reaction was stopped by placing the tubes on ice and adding 100 μL of ice-cold acetonitrile containing internal standards (0.5 μg/mL [^13C,^15N]-acetaminophen for acetaminophen and N-desethylamodiaquine, 0.5 μg/mL [^2H5]-7-hydroxycoumarin for 7-hydroxycoumarin, 2.0 μg/mL [^13C6]-4-hydoxydiclofenac for 4-hydoxydiclofenac, 0.5 μg/mL [^2H3]-4'-hydoxymephenytoin for 4-hydoxymephenytoin and 1'-hydroxymidazolam, and 0.5 μg/mL [^2H7]-1'-hydroxybufuralol for 1'-hydroxybufuralol). The incubation mixtures were then centrifuged at 10,000× g for 5 min. All incubations were performedin triplicate.
# (§2) To evaluate the effect of preincubation on inhibitory potency, eupatilin and jaceosidin (0.1−100 μM) were preincubated for 30 min with NADPH, buffer, and microsomes before the addition of the CYP probe substrates. The reaction was started by addition of the cocktail of probe substrates.
# (§3) All seven metabolites produced from the cocktail of CYP isoform-specific substrates were simultaneously determined by LC/MS/MS. The system consisted of a tandem quadrupole mass spectrometer (TSQ Quantum Access, ThermoFisher Scientific, CA, USA) coupled with a Nanospace SI-2 LC system. The separation was performed on an Atlantis dC18 column (5 μm, 2.1 mm i.d. × 100 mm, Waters, Waltham, MA, USA) using the gradient elution of a mixture of 5% methanol in 0.1% formic acid (mobile phase A) and 95% methanol in 0.1% formic acid (mobile phase B) at a flow rate of 0.25 mL/min: 10% mobile phase B for 1 min, 10% to 95% mobile phase B for 1 min, 95% mobile phase B for 5 min. The column and autosampler temperatures were 50 °C and 4 °C, respectively. After 1.5 min, the LC eluant was diverted from waste to the mass spectrometer that was fitted with an electrospray ionization (ESI) source and operated in the positive ion mode. The ESI source settings for the ionization of the metabolites were as follows: electrospray voltage, 5.0 kV; vaporizer temperature, 420 °C; capillary temperature 360 °C; sheath gas pressure, 35 psi; auxiliary gas pressure, 10 psi. Quantification was performed by selected reaction monitoring (SRM) of the [M+H]^+ ion and the related product ion for each metabolite. The analytical data were processed using Xcalibur® software (ThermoFisher Scientific).
# (§4) The IC50 values (concentration of inhibitor causing 50% inhibition of the original enzyme activity) were calculated using WinNonlin software, a non-linear regression analysis program (Pharsight, Mountain View, CA, USA). The apparent kinetic parameters for inhibitory potential (Ki values) were estimated from the fitted curves using Enzyme Kinetics Ver. 1.3 program (Systat Software Inc., San Jose, CA, USA).
# CYP2A6 = target: T1, CYP2A6 (Homo sapiens, UniProt P11509); test: Cocktail probe assay in pooled human liver microsomes: coumarin 7-hydroxylation (IC50); conditions: for IC50, coumarin 7-hydroxylation (CYP2A6): pooled human liver microsomes, 2.5 μM coumarin
# T1 construct: pooled human liver microsomes (0.25 mg/mL); tissue BD Gentest Co. H161; host or cells: pooled human liver microsomes
# T1 sequence (P11509 1-494): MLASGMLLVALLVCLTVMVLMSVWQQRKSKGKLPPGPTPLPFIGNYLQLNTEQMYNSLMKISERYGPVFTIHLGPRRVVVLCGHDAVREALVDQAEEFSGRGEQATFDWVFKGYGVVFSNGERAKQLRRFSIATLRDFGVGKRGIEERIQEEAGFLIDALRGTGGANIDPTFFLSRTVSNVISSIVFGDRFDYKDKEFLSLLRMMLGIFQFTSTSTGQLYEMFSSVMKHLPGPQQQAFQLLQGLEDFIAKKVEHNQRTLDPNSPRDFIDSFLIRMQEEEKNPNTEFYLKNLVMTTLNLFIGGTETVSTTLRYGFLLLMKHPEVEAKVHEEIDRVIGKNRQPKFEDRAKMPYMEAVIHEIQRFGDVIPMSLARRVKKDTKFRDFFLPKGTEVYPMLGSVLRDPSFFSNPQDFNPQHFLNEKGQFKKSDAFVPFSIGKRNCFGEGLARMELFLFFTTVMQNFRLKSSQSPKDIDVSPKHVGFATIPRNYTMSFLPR
# Procedure: as §1, §2, §3, §4
# CYP2D6 = target: T2, CYP2D6 (Homo sapiens, UniProt P10635); test: Cocktail probe assay in pooled human liver microsomes: bufuralol 1'-hydroxylation (IC50); conditions: 5.0 μM bufuralol
# T2 construct: pooled human liver microsomes (0.25 mg/mL); tissue BD Gentest Co. H161; host or cells: pooled human liver microsomes
# Procedure: as §1, §2
# (§5) All seven metabolites produced from the cocktail of CYP isoform-specific substrates were simultaneously determined by LC/MS/MS. The system consisted of a tandem quadrupole mass spectrometer (TSQ Quantum Access, ThermoFisher Scientific, CA, USA) coupled with a Nanospace SI-2 LC system. The separation was performed on an Atlantis dC18 column (5 μm, 2.1 mm i.d. × 100 mm, Waters, Waltham, MA, USA) using the gradient elution of a mixture of 5% methanol in 0.1% formic acid (mobile phase A) and 95% methanol in 0.1% formic acid (mobile phase B) at a flow rate of 0.25 mL/min: 10% mobile phase B for 1 min, 10% to 95% mobile phase B for 1 min, 95% mobile phase B for 5 min. […] Quantification was performed by selected reaction monitoring (SRM) of the [M+H]^+ ion and the related product ion for each metabolite. […]
# CYP1A2 = target: T3, CYP1A2 (Homo sapiens, UniProt P05177); test: Cocktail probe assay in pooled human liver microsomes: phenacetin O-deethylation (IC50); conditions: 50 μM phenacetin
# T3 construct: pooled human liver microsomes (0.25 mg/mL); tissue BD Gentest Co. H161; host or cells: pooled human liver microsomes
# T3 sequence (P05177 1-516): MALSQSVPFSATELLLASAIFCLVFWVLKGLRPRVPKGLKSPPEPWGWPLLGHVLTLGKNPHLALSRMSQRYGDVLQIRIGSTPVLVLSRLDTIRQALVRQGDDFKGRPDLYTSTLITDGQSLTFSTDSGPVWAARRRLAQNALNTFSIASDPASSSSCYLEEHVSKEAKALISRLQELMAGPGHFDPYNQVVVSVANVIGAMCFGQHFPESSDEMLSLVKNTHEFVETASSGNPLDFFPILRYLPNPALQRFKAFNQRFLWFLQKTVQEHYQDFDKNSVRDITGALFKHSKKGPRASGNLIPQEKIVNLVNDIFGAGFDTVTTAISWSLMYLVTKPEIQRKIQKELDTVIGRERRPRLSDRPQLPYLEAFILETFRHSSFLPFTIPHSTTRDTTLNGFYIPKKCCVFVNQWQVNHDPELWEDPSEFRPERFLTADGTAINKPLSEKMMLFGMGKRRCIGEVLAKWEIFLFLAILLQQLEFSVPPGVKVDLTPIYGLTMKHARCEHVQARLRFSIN
# Procedure: as §1, §2, §5
# CYP2C8 = target: T4, CYP2C8 (Homo sapiens, UniProt P10632); test: Kinetic analysis (Ki, inhibition type) in human liver microsomes: amodiaquine N-deethylation; conditions: pooled human liver microsomes
# T4 construct: pooled human liver microsomes (0.25 mg/mL); tissue BD Gentest Co. H161; host or cells: pooled human liver microsomes
# T4 sequence (P10632 1-490): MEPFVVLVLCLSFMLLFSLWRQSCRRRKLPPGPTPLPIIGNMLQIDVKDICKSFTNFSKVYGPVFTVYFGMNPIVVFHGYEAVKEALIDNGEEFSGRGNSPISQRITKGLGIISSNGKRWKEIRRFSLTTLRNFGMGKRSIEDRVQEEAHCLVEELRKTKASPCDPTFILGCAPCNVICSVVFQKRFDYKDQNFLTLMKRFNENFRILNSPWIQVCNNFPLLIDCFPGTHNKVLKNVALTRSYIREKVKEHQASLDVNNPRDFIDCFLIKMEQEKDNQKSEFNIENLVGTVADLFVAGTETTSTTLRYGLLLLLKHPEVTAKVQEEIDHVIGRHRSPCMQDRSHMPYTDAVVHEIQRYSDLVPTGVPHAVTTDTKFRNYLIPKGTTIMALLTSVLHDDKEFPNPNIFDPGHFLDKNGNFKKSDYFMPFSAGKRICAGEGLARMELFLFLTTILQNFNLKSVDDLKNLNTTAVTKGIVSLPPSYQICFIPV
# Procedure: (§6) The Ki values and inhibition types (competitive, noncompetitive, uncompetitive, or mixed) were determined for eupatilin and jaceosidin using Lineweaver plots, Dixon plots, and secondary reciprocal plots.
# (§7) The reactions were initiated by addition of NADPH at 37 °C and stopped after 15 min by placing the incubation tubes on ice and adding 100 μL of ice-cold methanol containing an internal standard. The incubation mixtures were centrifuged at 10,000' g for 5 min, and aliquots (5 μL) of the supernatants were analyzed by liquid chromatography/tandem mass spectrometry (LC/MS/MS).
# as §3, §4
# CYP2C9 = target: T5, CYP2C9 (Homo sapiens, UniProt P11712); test: Kinetic analysis (Ki, inhibition type) in human liver microsomes: diclofenac 4-hydroxylation; conditions: pooled human liver microsomes; for Inhibition type, diclofenac 4-hydroxylation (CYP2C9): Lineweaver, Dixon and secondary reciprocal plots
# T5 construct: pooled human liver microsomes (0.25 mg/mL); tissue BD Gentest Co. H161; host or cells: pooled human liver microsomes
# Procedure: as §6, §7, §3, §4
# [1] = with 30 min preincubation in presence of NADPH
# T5 sequence (P11712 whole entry): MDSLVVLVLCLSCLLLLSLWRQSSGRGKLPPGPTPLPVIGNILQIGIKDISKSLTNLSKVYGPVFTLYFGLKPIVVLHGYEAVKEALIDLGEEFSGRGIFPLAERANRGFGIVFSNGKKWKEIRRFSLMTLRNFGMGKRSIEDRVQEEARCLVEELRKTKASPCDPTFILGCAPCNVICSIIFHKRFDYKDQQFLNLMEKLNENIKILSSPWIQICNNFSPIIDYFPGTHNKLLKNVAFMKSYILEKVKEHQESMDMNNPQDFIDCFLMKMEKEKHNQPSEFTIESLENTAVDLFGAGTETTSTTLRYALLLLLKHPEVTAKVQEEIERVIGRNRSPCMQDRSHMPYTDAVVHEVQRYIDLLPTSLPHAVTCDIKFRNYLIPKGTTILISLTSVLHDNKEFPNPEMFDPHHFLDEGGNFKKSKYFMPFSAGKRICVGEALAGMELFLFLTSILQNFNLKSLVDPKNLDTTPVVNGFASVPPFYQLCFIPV
# T2 sequence (P10635 whole entry): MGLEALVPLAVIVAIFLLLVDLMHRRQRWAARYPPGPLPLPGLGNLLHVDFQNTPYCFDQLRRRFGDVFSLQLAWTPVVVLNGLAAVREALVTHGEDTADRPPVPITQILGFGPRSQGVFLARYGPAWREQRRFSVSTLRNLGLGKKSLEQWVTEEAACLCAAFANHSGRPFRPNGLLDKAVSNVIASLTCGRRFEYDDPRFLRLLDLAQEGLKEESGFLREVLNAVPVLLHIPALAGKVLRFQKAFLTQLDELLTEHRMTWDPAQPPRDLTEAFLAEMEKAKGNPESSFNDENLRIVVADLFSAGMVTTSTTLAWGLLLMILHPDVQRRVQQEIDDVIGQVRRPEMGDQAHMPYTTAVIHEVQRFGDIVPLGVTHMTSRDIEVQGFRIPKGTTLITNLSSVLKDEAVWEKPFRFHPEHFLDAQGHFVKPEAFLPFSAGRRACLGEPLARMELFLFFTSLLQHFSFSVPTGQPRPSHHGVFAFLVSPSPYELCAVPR
smiles,measurement,setting,value
"COc1cc(-c2cc(=O)c3c(O)c(OC)c(O)cc3o2)ccc1O [jaceosidin, 5,7-dihydroxy-2-(4-hydroxy-3-methoxyphenyl)-6-methoxychromen-4-one]","IC50, midazolam 1'-hydroxylation (CYP3A)",CYP3A; no preincubation,No inhibition
same,"IC50, midazolam 1'-hydroxylation (CYP3A)",CYP3A; [1],No inhibition
same,Inhibition of CYP2A6-catalyzed coumarin 7-hydroxylation at the highest concentration tested,"CYP2A6; 100 μM, human liver microsomes",negligible inhibition
same,"IC50, coumarin 7-hydroxylation (CYP2A6)",CYP2A6; no preincubation,No inhibition
same,"IC50, coumarin 7-hydroxylation (CYP2A6)",CYP2A6; [1],No inhibition
same,IC50,CYP2D6; no preincubation,79.1 ± 1.8 µM
same,IC50,CYP2D6; [1],82.3 ± 2.4 µM
same,IC50,CYP1A2; no preincubation,5.3 ± 0.81 µM
same,IC50,CYP1A2; [1],6 ± 0.45 µM
same,Ki,CYP2C8; 0.5-5 μM amodiaquine,109 ± 7.3 µM
same,"Inhibition type, amodiaquine N-deethylation (CYP2C8)","CYP2C8; Lineweaver, Dixon and secondary reciprocal plots",competitive
same,Ki,CYP2C9; 1-50 μM diclofenac,6.4 ± 0.25 µM
same,"Inhibition type, diclofenac 4-hydroxylation (CYP2C9)",CYP2C9,competitive
same,"Inhibition type, diclofenac 4-hydroxylation (CYP2C9)",CYP2C9; listed as Jaceosidin,competitive
